Experiments:
Type in all cases: functional
Rattus norvegicus [1] = assay: Antihypertensive activity in spontaneously hypertensive rat assessed as reduction in mean arterial blood pressure at 1.5 mg/kg, po measured after 6 hrs
Rattus norvegicus [2] = assay: Antihypertensive activity in spontaneously hypertensive rat assessed as reduction in mean arterial blood pressure at 1.5 mg/kg, po measured after 12 hrs
Rattus norvegicus [3] = assay: Antihypertensive activity in spontaneously hypertensive rat assessed as reduction in mean arterial blood pressure at 3 mg/kg, po measured after 6 hrs
Rattus norvegicus [4] = assay: Antihypertensive activity in spontaneously hypertensive rat assessed as reduction in mean arterial blood pressure at 3 mg/kg, po measured after 12 hrs
Rattus norvegicus [5] = assay: Antihypertensive activity in spontaneously hypertensive rat assessed as reduction in mean arterial blood pressure at 3 mg/kg, po measured after 6 hrs relative to nifedipine; parameters: scale not given: the % may be the effect or the level left
Rattus norvegicus [6] = assay: Antihypertensive activity in spontaneously hypertensive rat assessed as reduction in mean arterial blood pressure at 1.5 mg/kg, po measured after 6 hrs relative to nifedipine; parameters: scale not given: the % may be the effect or the level left
Rattus norvegicus [7] = assay: Antihypertensive activity in spontaneously hypertensive rat assessed as reduction in mean arterial blood pressure at 1.5 mg/kg, po measured after 12 hrs relative to nifedipine; parameters: scale not given: the % may be the effect or the level left
Rattus norvegicus [8] = assay: Antihypertensive activity in spontaneously hypertensive rat assessed as reduction in mean arterial blood pressure at 3 mg/kg, po measured after 12 hrs relative to nifedipine; parameters: scale not given: the % may be the effect or the level left

Row | Structure (SMILES) | Activity (Rattus norvegicus [1]) [mmHg] | Activity (Rattus norvegicus [2]) [mmHg] | Activity (Rattus norvegicus [3]) [mmHg] | Activity (Rattus norvegicus [4]) [mmHg] | Activity (Rattus norvegicus [5]) [%] | Activity (Rattus norvegicus [6]) [%] | Activity (Rattus norvegicus [7]) [%] | Activity (Rattus norvegicus [8]) [%]
1 | CCOC(=O)C1=C(C)N=C2NC(C)C(=O)N2C1c1cccc(C)c1 (centres undefined) | 5.5 | 11.51 | 18 | 24.65 | 95.46 | 79.78 | 92.95 | 92.02
2 | CCOC(=O)C1=C(C)N=C2SC(C)C(=O)N2C1c1ccccc1O (centres undefined) | 0.58 | 1.29 | 4.47 | 9.18 | – | – | – | –
3 | CCOC(=O)C1=C(C)N=C2OC(C)C(=O)N2C1c1cccc([N+](=O)[O-])c1 (centres undefined) | 2.01 | 4.1 | 8.19 | 15.16 | – | – | – | –
4 | CCOC(=O)C1=C(C)N=C2NC(C)C(=O)N2C1c1ccccc1 (centres undefined) | 5.96 | 12.39 | 18.1 | 25.38 | 95.46 | 79.78 | 92.95 | 92.02
5 | CCOC(=O)C1=C(C)N=C2OC(C)C(=O)N2C1c1ccc([N+](=O)[O-])cc1 (centres undefined) | 1.8 | 2.59 | 7.22 | 12.97 | – | – | – | –
6 | CCOC(=O)C1=C(C)N=C2SC(C)C(=O)N2C1c1ccc(C)c(C)c1 (centres undefined) | 1.62 | 2.2 | 5.76 | 8.24 | – | – | – | –
7 | CCOC(=O)C1=C(C)N=C2SC(C)C(=O)N2C1c1cccc(Cl)c1 (centres undefined) | 1.16 | 1.41 | 5.37 | 7.2 | – | – | – | –
8 | CCOC(=O)C1=C(C)N=C2OC(C)C(=O)N2C1c1ccccc1 (centres undefined) | 1.12 | 1.82 | 6.04 | 10.9 | – | – | – | –
9 | COC(=O)C1=C(C)NC(C)=C(C(=O)OC)C1c1ccccc1[N+](=O)[O-] [NIFEDIPINE] | 7.47 | 13.33 | 18.96 | 27.58 | – | – | – | –
